These results are taken from article PMC3687796 (Clinical cancer research : an official journal of the …, 2011).

Where a name gives a salt, the structure may show the parent alone.

One series relates to tumor cell lines. The experiment in a line: In vitro cytotoxicity, Alamar blue cell viability, all tumor cell lines. In kind it is cell-based. Particulars: 72 hours treatment, all concentrations tested.
The test system of series [1] is RH30 rhabdomyosarcoma xenograft. In words: RH30 rhabdomyosarcoma xenograft model. It counts as in vivo. Particulars: for tumor growth: LDM TP 1.0 mg/kg, PZ 150 mg/kg, TP + PZ both.
Series [2] is described as follows: PKs of topotecan and pazopanib in nontumor-bearing animals. Particulars: for difference between plasma concentrations of single agent and combination treated animals: at any time point. It counts as in vivo, mouse.
The test system of a further series is SH-SY5Y xenograft. In words: SH-SY5Y subcutaneous xenograft model. In kind it is in vivo. Particulars: for tumor microvessel density (CD31 pixel counts): compared with the control, 20 days treatment; for tumor growth delay / tumor weights at the end of the treatment: daily oral, 20 days, LDM TP 1.0 mg/kg, PZ 150 mg/kg, TP + PZ both.
In the next series the test system is RD. The experiment in a line: In vitro cytotoxicity, Alamar blue cell viability. It counts as cell-based. Particulars: Homo sapiens, 72 h, read-out: IC50, viability of RD.
Series [3] relates to KHOS osteosarcoma xenograft. The experiment in a line: KHOS osteosarcoma xenograft model. In kind it is in vivo. Particulars: for tumor growth / tumor weight at the end of the treatment / tumor microvessel density (vWF pixel counts): 28 days; for tumor microvessel density (vWF pixel counts): compared with the control.
The next series relates to BE(2)-c metastatic model. The experiment in a line: BE. It counts as in vivo, mouse. Particulars: daily oral until death or endpoint.
A further series has as its system RH30. In words: In vitro cytotoxicity, Alamar blue cell viability. In kind it is cell-based. Particulars: Rh30, 72 h, read-out: IC50, viability of RH30.
The next series concerns KHOS. The experiment in a line: In vitro cytotoxicity, Alamar blue cell viability. It counts as cell-based. Particulars: 72 h, read-out: IC50, viability of KHOS.
The test system of the next series is ovarian cancer model. Particulars: cited from earlier work.
Setting [4] is: Pulse TP weekly oral 15 mg/kg topotecan.
Setting [5] is: daily oral, LDM TP 1.0 mg/kg, TP + PZ 1.0 + 150 mg/kg.

On to `Cc1ccc(Nc2nccc(N(C)c3ccc4c(C)n(C)nc4c3)n2)cc1S(N)(=O)=O` [pazopanib, 5-[[4-[(2,3-Dimethyl-2H-indazol-6-yl)methyl-amino]-2-pyrimidinyl]amino]-2-methylbenzolsulfonamide], for which the “effect on viability of the tumor cell lines” value in the series with tumor cell lines is listed as “did not affect the viabilities”. For the same molecule, in series [1] (after 31 days treatment), the “WBC level (bone marrow toxicity)” value is recorded as “reduced WBC level significantly” and the “viable CEP levels in blood” value is reported as “significantly lower viable CEP levels compared with the control”. Besides, in series [1] (daily oral, 56 days), the “enhancement of survival compared with both control and LDM TP” value worked out at 2 fold; the tumor growth entry is recorded as “delayed the tumor growth”. Further, the “difference between plasma concentrations of single agent and combination treated animals” value in [2] is “no significant difference”. The molecule further registered a Cmax in series [2] (mouse, plasma, po, 150 mg/kg) of 134 µg/mL. Besides, in the series on SH-SY5Y xenograft, the “tumor microvessel density (CD31 pixel counts)” value was “significant reduction in microvessel densities”, the tumor growth delay result is “tumor growth delay in the order PZ< LDM TP< TP+PZ” and the “tumor weights at the end of the treatment” value is on record as “significant difference in tumor weights compared with the control”.
For `CC[C@@]1(O)C(=O)OCc2c1cc1n(c2=O)Cc2cc3c(CN(C)C)c(O)ccc3nc2-1` [topotecan, (S)-10-[(dimethylamino)methyl]-4-ethyl-4,9-dihydroxy-1H-yrano [3′,4′:6,7] indolizino[1,2-b] quinoline-3,14 (4H,12H)-dione monohydrochloride], the figures for the IC50 with RD, in the series with RH30 and in the series with KHOS were 7.5 ng/mL, 7.4 ng/mL and 4.9 ng/mL, respectively. Also, the “effect on viability of the tumor cell lines” value in the series with tumor cell lines is given as “dose-dependent reduction in the viability”. Moreover, the tumor growth entry is given as “delayed the tumor growth” in [3] (setting [4]); “delayed the tumor growth” in series [3] (setting [5]); “ineffective in controlling the tumor growth” in [1] (daily oral, 56 days). Also, the “tumor weight at the end of the treatment” value in series [3] (setting [4]) and in [3] (setting [5]) was “significantly lower tumor weight” each time. Besides, the “viable CEP levels in blood” value in series [3] (after 28 days treatment) was “significant reduction in viable CEP levels compared with Pulse TP”. Further, the “tumor microvessel density (vWF pixel counts)” value in [3] (Pulse TP weekly 15 mg/kg) and in series [3] (daily regimens) was “caused reduction in microvessel densities” in each case. In addition, the survival result with BE(2)-c metastatic model was “higher than PZ-treated animals”. The “peak plasma concentration of topotecan” value in series [2] (LDM TP group, single oral 1.0 mg/kg topotecan) amounted to 19.75 ng/mL; in series [2] (TP + PZ group, single oral 1.0 mg/kg topotecan + 150 mg/kg pazopanib), 33.05 ng/mL. The “difference between plasma concentrations of single agent and combination treated animals” value in series [2] is “no significant difference”. Also, the “tumor microvessel density (CD31 pixel counts)” value with SH-SY5Y xenograft is “but not LDM TP caused significant reduction in microvessel densities”. Moreover, in the series with SH-SY5Y xenograft, the tumor growth delay result is recorded as “tumor growth delay in the order PZ< LDM TP< TP+PZ”. Further, the “tumor weights at the end of the treatment” value in the series with SH-SY5Y xenograft is listed as “significant tumor weight reduction compared with PZ”. Moreover, the food intake result in the series on ovarian cancer model (1.5 mg/kg daily, oral) is recorded as “decreased food intake”. In the series on ovarian cancer model (daily oral metronomic 0.5, 1.0 and 1.5 mg/kg), the “microvascular density compared with weekly maximum-tolerated dose regimen (7.5 and 15 mg/kg)” value was “greater reduction in microvascular density”.
